# Reference: US12729377B2, “RNAi agents and compositions for inhibiting expression of angiopoietin-like 3 (ANGPTL3), and methods of use” (Arrowhead Pharmaceuticals, Inc., priority 2017, dated 2026)
# In the oligonucleotide strings, read from the 5' end, every base follows the letter of its sugar. An asterisk marks phosphorothioate; unmarked linkages are phosphodiester. Other units and linkages are bracketed, terminal groups are in braces. A string of capitals states the bases alone. {NAG37} = tridentate N-acetyl-galactosamine targeting ligand, structure (NAG37)s; [invAb] = inverted abasic unit; m = 2'-O-methyl; f = 2'-fluoro
# How the values were obtained:
# ANGPTL3 gene [1] = assay: Example 2: serum HDL in mice; assay type: in vivo
# Description: (§1) To assess the in vivo activity of ANGPTL3 RNAi agents that are designed to target different positions on the ANGPTL3 gene, six- to eight-week-old female C57bl/6 mice were used. Pre-dose serum samples were taken at day −1 after a four hour fast. At day 1, each mouse was given a single subcutaneous administration of 200 μl containing either 3 mg/kg (mpk) of an ANGPTL3 RNAi agent in D5W (dextrose in 5% water), or control (D5W) with no RNAi agent, according to the dosing groups recited in Table 7.
# (§2) Each of the RNAi agents included a modified sequence and an N-acetyl-galactosamine-containing targeting ligand conjugated to the 5′ terminal end of the sense strand. (See Tables 3, 4, and 5 for modified sequences and targeting ligand structures). The injections were performed between the skin and muscle (i.e. subcutaneous injections) into the loose skin over the neck and shoulder area. Three (3) mice in each group were tested (n=3). Serum was collected on days 8, […], 22, 29, and day 36 (for Groups 1 and 5-11 only). Mice were fasted for four hours prior to each collection. ANGPTL3 protein levels in serum were measured by ELISA assay (R&D Systems), according to the manufacturer's recommendations. Triglycerides, high-density lipoprotein (HDL), and total cholesterol in serum were measured on a Cobas® Integra 400 (Roche Diagnostics), according to the manufacturer's recommendations.
# (§3) The ANGPTL3 protein levels, triglyceride levels, HDL levels, and total cholesterol levels for each animal were normalized. For normalization, the level of ANGPTL3 protein, triglyceride, HDL, and total cholesterol, respectively, for each animal at a time point, was divided by the pre-treatment level of expression in that animal (in this case at day −1) to determine the ratio of expression “normalized to pre-treatment.” Expression at a specific time point was then normalized to the D5W control group by dividing the “normalized to pre-treatment” ratio for an individual animal by the mean “normalized to pretreatment” ratio of all mice in the D5W control group.
# ANGPTL3 gene [2] = assay: Example 2: serum total cholesterol in mice; assay type: in vivo
# Description: as §1, §2, §3
# ANGPTL3 protein = assay: Example 5: serum ANGPTL3 protein by ELISA in cynomolgus monkeys; assay type: in vivo, cynomolgus macaque (Macaca fascicularis); conditions: for Avg ANGPTL3 protein normalized to pre-treatment, individual animal / Avg ANGPTL3 protein normalized to pre-treatment, by group: 3.0 mg/kg single SC injection on day 1, serum; for Avg ANGPTL3 protein normalized to pre-treatment, by group: group average n=2
# Description: ANGPTL3 RNAi agents were evaluated in cynomolgus monkeys. On day 1, cynomolgus macaque (Macaca fascicularis) primates (also referred to herein as “cynos”) were administered a single subcutaneous injection of 0.3 mL/kg (approximately 2-3 mL volume, depending on animal mass) containing 3.0 mg/kg of ANGPTL3 RNAi agent AD05308 or AD05418, formulated in saline.
# Two (2) cynos in each group were tested (n=2). Blood samples were drawn and serum samples were analyzed on days −37 (pre-dose), −15 (pre-dose), and −1 (pre-dose), 8, 16, 23, 30, and 37. Cynos were fasted overnight prior to each collection. ANGPTL3 protein levels in serum were measured by ELISA assay (R&D Systems), according to the manufacturer's recommendations. The ANGPTL3 protein levels were normalized. For normalization, the level of ANGPTL3 protein for each animal at a time point, was divided by the average pre-treatment level of expression in that animal (in this case at days −37, −15, and −1) to determine the ratio of expression “normalized to pre-treatment.”
# ANGPTL3 gene [3] = assay: Example 2: serum triglycerides in mice; assay type: in vivo
# Description: as §1, §2, §3
# [4] = Day 8, 3.0 mg/kg single subcutaneous dose on day 1, female C57bl/6 mice
# [5] = Day 13, 3.0 mg/kg single subcutaneous dose on day 1, female C57bl/6 mice
# [6] = Day 22, 3.0 mg/kg single subcutaneous dose on day 1, female C57bl/6 mice
# [7] = Day 29, 3.0 mg/kg single subcutaneous dose on day 1, female C57bl/6 mice
# [8] = Day 36, 3.0 mg/kg single subcutaneous dose on day 1, female C57bl/6 mice
substance,measurement,setting,value
"AD05308: RNAi agent duplex: antisense AM07003-AS, sense AM07002-SS (chain 1 mU*fG*mU*fUmGfAmAfUmUfAmAfUmGfUmCfCmAfUmGfG*mA; chain 2 {NAG37}*[invAb]*mUmCmCmAmUmGmGmAfCfAfUmUmAmAmUmUmCmAmAmCmA*[invAb])",Avg HDL (Average HDL Normalized to Pre-Treatment and Control),ANGPTL3 gene [1]; [4],0.634
same,Avg HDL (Average HDL Normalized to Pre-Treatment and Control),ANGPTL3 gene [1]; [5],0.583
same,Avg HDL (Average HDL Normalized to Pre-Treatment and Control),ANGPTL3 gene [1]; [6],0.572
same,Avg HDL (Average HDL Normalized to Pre-Treatment and Control),ANGPTL3 gene [1]; [7],0.606
same,Avg HDL (Average HDL Normalized to Pre-Treatment and Control),ANGPTL3 gene [1]; [8],0.854
same,Avg Total Chol (Average Total Cholestrol Normalized to Pre-Treatment and Control),ANGPTL3 gene [2]; [4],0.671
same,Avg Total Chol (Average Total Cholestrol Normalized to Pre-Treatment and Control),ANGPTL3 gene [2]; [5],0.645
same,Avg Total Chol (Average Total Cholestrol Normalized to Pre-Treatment and Control),ANGPTL3 gene [2]; [6],0.621
same,Avg Total Chol (Average Total Cholestrol Normalized to Pre-Treatment and Control),ANGPTL3 gene [2]; [7],0.669
same,Avg Total Chol (Average Total Cholestrol Normalized to Pre-Treatment and Control),ANGPTL3 gene [2]; [8],0.905
same,"Avg ANGPTL3 protein normalized to pre-treatment, individual animal","ANGPTL3 protein; Day 8, Cyno A",0.545
same,"Avg ANGPTL3 protein normalized to pre-treatment, individual animal","ANGPTL3 protein; Day 8, Cyno B",0.287
same,"Avg ANGPTL3 protein normalized to pre-treatment, by group",ANGPTL3 protein; Day 8,0.416
same,"Avg ANGPTL3 protein normalized to pre-treatment, individual animal","ANGPTL3 protein; Day 16, Cyno A",0.423
same,"Avg ANGPTL3 protein normalized to pre-treatment, individual animal","ANGPTL3 protein; Day 16, Cyno B",0.471
same,"Avg ANGPTL3 protein normalized to pre-treatment, by group",ANGPTL3 protein; Day 16,0.447
same,"Avg ANGPTL3 protein normalized to pre-treatment, individual animal","ANGPTL3 protein; Day 23, Cyno A",0.832
same,"Avg ANGPTL3 protein normalized to pre-treatment, individual animal","ANGPTL3 protein; Day 23, Cyno B",0.465
same,"Avg ANGPTL3 protein normalized to pre-treatment, by group",ANGPTL3 protein; Day 23,0.649
same,"Avg ANGPTL3 protein normalized to pre-treatment, individual animal","ANGPTL3 protein; Day 30, Cyno A",0.722
same,"Avg ANGPTL3 protein normalized to pre-treatment, individual animal","ANGPTL3 protein; Day 30, Cyno B",0.572
same,"Avg ANGPTL3 protein normalized to pre-treatment, by group",ANGPTL3 protein; Day 30,0.647
same,"Avg ANGPTL3 protein normalized to pre-treatment, individual animal","ANGPTL3 protein; Day 37, Cyno A",0.709
same,"Avg ANGPTL3 protein normalized to pre-treatment, individual animal","ANGPTL3 protein; Day 37, Cyno B",0.421
same,"Avg ANGPTL3 protein normalized to pre-treatment, by group",ANGPTL3 protein; Day 37,0.565
same,reduction in ANGPTL3 protein compared to pre-treatment,"ANGPTL3 protein; all measured time points, single 3.0 mg/kg subcutaneous, cynomolgus monkeys",reduction
same,Avg TG (Average Triglycerides Normalized to Pre-Treatment and Control),ANGPTL3 gene [3]; [4],0.375
same,Avg TG (Average Triglycerides Normalized to Pre-Treatment and Control),ANGPTL3 gene [3]; [5],0.554
same,Avg TG (Average Triglycerides Normalized to Pre-Treatment and Control),ANGPTL3 gene [3]; [6],0.399
same,Avg TG (Average Triglycerides Normalized to Pre-Treatment and Control),ANGPTL3 gene [3]; [7],0.473
same,Avg TG (Average Triglycerides Normalized to Pre-Treatment and Control),ANGPTL3 gene [3]; [8],0.430
